Assay results: patent EP1661584A1, “Use of conjugates of amatoxins and phallotoxins with macromolecules for cancer and inflammation therapy” (Faulstich, Heinz, Dr., priority 2004, dated 2006)

Assays:
[1] = molecular target: DNA-dependent RNA polymerase II (Homo sapiens, UniProt P24928+P30876); conditions: complex between amanitin and RNA polymerase II; cited from earlier work
[2] = system: actin; test: actin binding
From the text: In all cases the macromolecular conjugates were distinctly more toxic to tumor cells (>1000) than the native toxins. Of high importance for this cytotoxic activity is the presence of a disulfide group in the linker moiety between toxin and macromolecule. After uptake into the tumor cells the disulfide group is cleaved by reduction releasing thiopropionyl-aminophalloidin or thiopropionyl-aminophallacidin into cytoplasm.

| Substance | Kd [1] [nM] | actin binding compared with phalloidin [2] |
| --- | --- | --- |
| amanitin | 3 | – |
| thiopropionyl-aminophalloidin | – | as tightly as phalloidin itself |
